A short description of this data set: Henry solubility constant Hcp at 298.15 K (mol/(m3 Pa)).
The mark [1] stands for this setting: reference: Boggs and Buck (1958).
Setting [2] is: reference: Dohányosová et al. (2004).
Setting [3] is: reference: Hawthorne et al. (1985).
[4] abbreviates: reference: Bakierowska and Trzeszczyński (2003).
Where [5] appears, read: reference: Bowden et al. (1998a).
Setting [6] is: reference: Christie and Crisp (1967).
The mark [7] stands for this setting: reference: Schuhfried et al. (2011).
[8] abbreviates: reference: Hartkopf and Karger (1973).
[9] abbreviates: reference: Fenclová et al. (2014).

The structures appear in SMILES notation.

For `FC(F)Cl` [chlorodifluoromethane], the “Henry solubility constant Hcp” value under setting [1] was 0.00035; the “Henry solubility constant Hcp” value (reference: Chang and Criddle (1995)) came to 0.00017; the “Henry solubility constant Hcp” value (reference: Maaßen (1995)) was 0.00035; the “Henry solubility constant Hcp” value (reference: Reichl (1995)) was found to be 0.00035; the “Henry solubility constant Hcp” value (reference: Zheng et al. (1997)) worked out at 0.00034.
As to `CCCl` [chloroethane], the “Henry solubility constant Hcp” value (reference: Chen et al. (2012)) was determined as 0.00076, the “Henry solubility constant Hcp” value (reference: Gossett (1987)) was found to be 0.00088, the “Henry solubility constant Hcp” value (reference: Maaßen (1995)) was found to be 0.00089 and the “Henry solubility constant Hcp” value (reference: Reichl (1995)) is 0.00093.
Turning to `FCCl` [chlorofluoromethane], under setting [1], the “Henry solubility constant Hcp” value was 0.0015.
Take `FC(F)(F)C(F)(F)Cl` [chloropentafluoroethane]: the “Henry solubility constant Hcp” value (reference: Reichl (1995)) is 3.1e-06.
Consider `FC(F)(F)Cl` [chlorotrifluoromethane], for which the “Henry solubility constant Hcp” value by setting is: (reference: Park et al. (1982)) 7.8e-06; (reference: Reichl (1995)) 8.9e-06; (reference: Scharlin and Battino (1994)) 9e-06; (reference: Scharlin and Battino (1995)) 9e-06.
With `C[C@@H]1CCCC[C@@H]1C` [cis-1,2-dimethylcyclohexane], the “Henry solubility constant Hcp” value under setting [2] is 2.7e-05.
Turning to `ClC1=C(Cl)[C@]2(Cl)[C@@H]3[C@@H](Cl)[C@@H](Cl)C[C@@H]3[C@@]1(Cl)C2(Cl)Cl` [cis-chlordane], the “Henry solubility constant Hcp” value (reference: Jantunen and Bidleman (2006)) came to 0.037.
On to `C1CCCCC1` [cyclohexane], for which the “Henry solubility constant Hcp” value runs as follows: (reference: Tsonopoulos and Wilson (1983)) 5.4e-05; (reference: Tucker et al. (1981)) 5.4e-05.
For `O=C1CCCCC1` [cyclohexanone], the “Henry solubility constant Hcp” value under setting [3] amounted to 0.82.
As to `C1=CCCCC1` [cyclohexene], the “Henry solubility constant Hcp” value is, setting by setting: under setting [4], 0.00033; (reference: Nielsen et al. (1994)) 0.00025.
Consider `C1CCCCCCC1` [cyclooctane], for which the “Henry solubility constant Hcp” value under setting [2] turned out to be 6.9e-05.
For the compound `C1=C\CCCCCC/1` [cyclooctene], the “Henry solubility constant Hcp” value under setting [2] is 0.00021.
As to `O=C1CCCC1` [cyclopentanone], the “Henry solubility constant Hcp” value under setting [3] was 0.82.
Regarding `C1=CCCC1` [cyclopentene], the “Henry solubility constant Hcp” value under setting [4] was determined as 0.00023.
With `C1CC1` [cyclopropane], under “reference: Saidman et al. (1966)”, the “Henry solubility constant Hcp” value was 0.00011.
Regarding `Brc1c(Br)c(Br)c(Oc2c(Br)c(Br)c(Br)c(Br)c2Br)c(Br)c1Br` [decabromodiphenyl ether], the “Henry solubility constant Hcp” value was 18 (reference: Cetin and Odabasi (2005)); 18 (reference: Long et al. (2017)).
With `C[Si](C)(C)O[Si](C)(C)O[Si](C)(C)O[Si](C)(C)C` [decamethyltetrasiloxane], under “reference: Xu and Kropscott (2014)”, the “Henry solubility constant Hcp” value is 1.4e-07.
In the case of `CCCCCCCCCC=O` [decanal], under “reference: Buttery et al. (1965)”, the “Henry solubility constant Hcp” value was 0.17.
On to `[2H][2H]` [deuterium], for which the “Henry solubility constant Hcp” value (reference: Muccitelli and Wen (1978)) amounted to 7.9e-06.
As for `O=C(O)C(Br)Br` [dibromoethanoic acid], the “Henry solubility constant Hcp” value under setting [5] is 2200.
For `CCCCNCCCC` [dibutylamine], the “Henry solubility constant Hcp” value under setting [6] came out at 0.11.
On to `ClNCl` [dichloramine], for which, for the setting “reference: Holzwarth et al. (1984)”, the “Henry solubility constant Hcp” value amounted to 0.28.
Consider `O=C(O)C(Cl)Cl` [dichloroethanoic acid], for which the “Henry solubility constant Hcp” value under setting [5] was 1200.
On to `CCSCC` [diethyl sulfide], for which the “Henry solubility constant Hcp” value under setting [7] was 0.0035.
Turning to `FCF` [difluoromethane], the “Henry solubility constant Hcp” value came out at 0.00068 (reference: Anderson (2011)); 0.00064 (reference: Kutsuna (2017)); 0.00069 (reference: Maaßen (1995)); 0.0003 (reference: Miguel et al. (2000)); 0.00069 (reference: Reichl (1995)).
Consider `NCCOCCO` [diglycolamine], for which, where the note is “reference: Nguyen (2013)”, the “Henry solubility constant Hcp” value came out at 6100.
Turning to `COCOC` [dimethoxymethane], the “Henry solubility constant Hcp” value (reference: Ondo and Dohnal (2007)) came out at 0.063.
On to `CNC` [dimethylamine], for which the “Henry solubility constant Hcp” value under setting [6] stood at 0.56.
Regarding `CN(C)CCOCCO` [dimethylaminoethoxyethanol], the “Henry solubility constant Hcp” value (reference: Nguyen (2013)) worked out at 4300.
Consider `[CH3][Hg][CH3]` [dimethylmercury], for which the “Henry solubility constant Hcp” value (reference: Talmi and Mesmer (1975)) was found to be 0.0013.
Take `CC(C)(C)C` [dimethylpropane]: the “Henry solubility constant Hcp” value turned out to be 5.5e-06 (reference: Shoor et al. (1969)) and 6.3e-06 (reference: Wetlaufer et al. (1964)).
For the compound `CS(C)=O` [dimethylsulfoxide], the “Henry solubility constant Hcp” value reads like this: (reference: Lee and Zhou (1994)) above 9900; (reference: Watts and Brimblecombe (1987)) 940.
Take `C1CN(CCOCCN2CCOCC2)CCO1` [dimorpholinodiethyl ether]: the “Henry solubility constant Hcp” value (reference: Nguyen (2013)) stood at 1800.
On to `FN(F)N(F)F` [dinitrogen tetrafluoride], for which the “Henry solubility constant Hcp” value (reference: Dean et al. (1973)) is 8.4e-06.
As to `CCCSSCCC` [dipropyl disulfide], under setting [7], the “Henry solubility constant Hcp” value is 0.0024.
In the case of `CCCOCCC` [dipropyl ether], the “Henry solubility constant Hcp” value under setting [8] turned out to be 0.0022.
On to `CCCNCCC` [dipropylamine], for which the “Henry solubility constant Hcp” value runs as follows: under setting [6], 0.19; (reference: Leng et al. (2015a)) 0.12.
For `CCN` [ethanamine], the “Henry solubility constant Hcp” value reads like this: (reference: Butler and Ramchandani (1935)) 0.99; under setting [6], 0.8.
As for `CCS` [ethanethiol], the “Henry solubility constant Hcp” value by setting is: (reference: Jou et al. (2021)) 0.0024; (reference: Vitenberg et al. (1975)) 0.0022.
Consider `CCO` [ethanol], for which the “Henry solubility constant Hcp” value (reference: Burnett (1963)) amounted to 2.1; the “Henry solubility constant Hcp” value (reference: Butler et al. (1935)) amounted to 1.9; the “Henry solubility constant Hcp” value (reference: Gupta et al. (2000)) was found to be 1.8; the “Henry solubility constant Hcp” value (reference: Harger et al. (1950)) turned out to be 1.9; the “Henry solubility constant Hcp” value (reference: Jones (1983)) amounted to 1.9; the “Henry solubility constant Hcp” value (reference: Park et al. (1987)) worked out at 1.9. The “Henry solubility constant Hcp” value turned out to be 3.1 (reference: Pividal et al. (1992)); 2 (reference: Richon et al. (1985)); 2.3 (reference: Rohrschneider (1973)); 1.9 (reference: Snider and Dawson (1985)); 1.9 (reference: Straver and de Loos (2005)); 1.1 (reference: Ueberfeld et al. (2001)). The “Henry solubility constant Hcp” value runs as follows: (reference: Vitenberg and Dobryakov (2008)) 1.8; (reference: Willey et al. (2017)) 1.8.
As for `C=COC(C)=O` [ethenyl ethanoate], for the setting “reference: Böhme et al. (2008)”, the “Henry solubility constant Hcp” value is 0.02.
Consider `C=Cc1ccccc1` [ethenylbenzene], for which the “Henry solubility constant Hcp” value (reference: Bissonette et al. (1990)) stood at 0.0029.
Regarding `CCOC(=O)C(C)CC` (stereo not drawn) [ethyl 2-methylbutanoate], the “Henry solubility constant Hcp” value runs as follows: (reference: Pollien et al. (2003)) 0.0089; (reference: Roberts and Pollien (1997)) 0.027.
As for `CCOC(=O)CC(C)C` [ethyl 3-methylbutanoate], the “Henry solubility constant Hcp” value (reference: Wieland et al. (2015)) was 0.011.
For `CCCC(=O)OCC` [ethyl butanoate], the “Henry solubility constant Hcp” value is, setting by setting: (reference: Aprea et al. (2007)) 0.024; under setting [9], 0.029; (reference: Landy et al. (1995)) 0.024; (reference: Landy et al. (1996)) 0.04; (reference: Souchon et al. (2004)) 0.026.
Consider `CCCCCCCCCC(=O)OCC` [ethyl decanoate], for which, under “reference: Aprea et al. (2007)”, the “Henry solubility constant Hcp” value turned out to be 0.014.
With `CCCCCC(=O)OCC` [ethyl hexanoate], the “Henry solubility constant Hcp” value (reference: Aprea et al. (2007)) stood at 0.014, the “Henry solubility constant Hcp” value (reference: Landy et al. (1995)) stood at 0.0094 and the “Henry solubility constant Hcp” value (reference: Landy et al. (1996)) was determined as 0.016.
With `CCSC` [ethyl methyl sulfide], the “Henry solubility constant Hcp” value under setting [7] was found to be 0.0042.
Regarding `CCCCCCCC(=O)OCC` [ethyl octanoate], for the setting “reference: Aprea et al. (2007)”, the “Henry solubility constant Hcp” value was 0.011.
As for `CCOC(=O)CC` [ethyl propanoate], the “Henry solubility constant Hcp” value under setting [9] was found to be 0.041.
For the compound `CCC1CCCCC1` [ethylcyclohexane], the “Henry solubility constant Hcp” value is 2e-05 under setting [2] and 3.1e-05 (reference: Heidman et al. (1985)).
Turning to `COP(=S)(OC)Oc1ccc([N+](=O)[O-])c(C)c1` [fenitrothion], the “Henry solubility constant Hcp” value (reference: Metcalfe et al. (1980)) is 11.
On to `CC(Cc1ccc(C(C)(C)C)cc1)CN1CCCCC1` (stereo not drawn) [fenpropidin], for which the “Henry solubility constant Hcp” value (reference: Feigenbrugel and Le Calvé (2021)) was determined as 710.
Take `Fc1ccccc1` [fluorobenzene]: under setting [8], the “Henry solubility constant Hcp” value was found to be 0.0015.
`O=C(O)CF` [fluoroethanoic acid]: the “Henry solubility constant Hcp” value under setting [5] was 800.
As for `CF` [fluoromethane], the “Henry solubility constant Hcp” value by setting is: (reference: Glew and Moelwyn-Hughes (1953)) 0.00058; (reference: Swain and Thornton (1962)) 0.00058.
For the compound `C[C@@H]1CCC[C@]2(C)CCCC[C@@]12O` [geosmin], the “Henry solubility constant Hcp” value (reference: Ömür-Özbek and Dietrich (2005)) came out at 0.081.
For the compound `COc1cc(CC(C)=O)ccc1O` [guaiacylacetone], the “Henry solubility constant Hcp” value (reference: McFall et al. (2020)) is 12000.
For the compound `[He]` [helium], the “Henry solubility constant Hcp” value reads like this: (reference: Cady et al. (1922)) 3.7e-06; (reference: Friedman (1954)) 3.8e-06; (reference: Krause and Benson (1989)) 3.9e-06; (reference: Lannung (1930)) 3.8e-06; (reference: Morrison and Johnstone (1954)) 3.7e-06; (reference: von Antropoff (1910)) 6.3e-06.

(Values after Sander's compilation of Henry's law constants.)
